For series [1], the system named is LLC-PK1 cells. Nature of the series: cytotoxic activity against mammalian cells in tissue culture (MTT). Type of series: cell-based, pig. On the procedure: (§1) All media contained 100 μg/ml of penicillin G and streptomycin. 24-wells microplates containing appropriate medium were inoculated with the cells in amount of 1.2×10^4 cells/well and allowed to stand overnight. Next, tested compounds as solution in dimethylsulfoxide (DMSO) were added in volume of 10 μl (serial 2× dilutions). To control well 10 μl of DMSO was added. Microplates with cell suspensions were incubated for 120 h at temperature 37° C. at atmosphere of 95%/5% CO2. After incubation, to all wells 200 μl of solution of 3-(4,5-dimethyltiazole-2-yl)-2,5-diphenylotetrazole bromide (MTT) in PBS (4 mg/ml) was added and plates were further incubated for 4 h at 37° C. Next, to dissolve crystals of formazane 1 ml of DMSO was added and absorption of solutions was measured at the wavelength λ=540 nm (A540), using a microplates reader (Victor^3, Perkin-Wallac). […] From these graphs IC50 values were read, that is concentration of tested compound in the presence at which A540 value is half of A540 value measured in the control sample.

Series [2] relates to CCRF-CEM cells. Described as above. Format: cell-based, human. The protocol:
as §1

The subject of series [3] is HepG2 cells. The description is as above. Type of series: cell-based, human. On the procedure: as §1
The subject of series [4] is Human erythrocytes. The series can be described thus: hemotoxicity determination (hemolytic activity). Type of series: cell-based. The protocol: The hemotoxicity determination was carried out by the serial dilutions method, according to the procedure described earlier (Slisz, M., et al., E., J Antibiot 57: 669-678 (2004). Human erythrocytes were suspended in the solution of saline to obtain a cell density of suspension 2×10^7/ml. Suitable amounts of diluted solutions of compounds were added to the cell suspension in tubes and were incubated at 37° C. for 30 minutes and then centrifuged (1700×g, 10 min, 4° C.). The concentration of hemoglobin in supernatant after centrifugation of erythrocytes suspension were determined by measuring the absorbance at wavelength λ=540 nm (A540). The maximum level of hemolysis was obtained after incubation of cells suspension in the presence of 0.1% Tritone X-100 (control sample). […] From these graphs, the EH50 values were read which are the interpolated concentrations of compound, for which the A540 value is exactly 50% of the A540 value measured for the control sample.

In series [5] the test system is Candida albicans ATCC 10231. Nature of the series: antifungal activity in vitro, serial dilution in RPMI 1640. Format: cell-based. On the procedure: (§2) For the determination of antifungal activity in vitro we used method of serial dilution in buffered medium RPMI 1640, pH 7.0, in a 96-wells microplates, according to the standard procedure (National Committee for Clinical Laboratory Standards. Reference method for broth dilution antifungal susceptibility testing of yeast, approved standard, 2nd ed. M27-A2 vol. 22 Wayne, Pa., 2002). The optical density of cells suspension was measured using a microplates reader (Victor^3, Perkin-Elmer) at the wavelength λ=531 nm (A531). On the basis of obtained results the diagrams of relation between A531 values and concentration of examined compound were made.

For series [6], the system named is Candida lusitaniae DSM 70102. The description is as above. Format: cell-based. On the procedure: as §2
The subject of series [7] is Candida tropicalis KKP 334. The description is as above. Format: cell-based. The protocol: as §2
Series [8] deals with Saccharomyces cerevisiae ATCC 9763. Described as above. Format: cell-based. The settings on record: RPMI 1640, pH 7.0; for Antifungal activity IC50: Saccharomyces cerevisiae ATCC 9763 (first head over MIC and IC50); for Antifungal activity MIC: Saccharomyces cerevisiae ATCC 9763. The protocol:
as §2

The test system of series [9] is Candida krusei DSM 6128. Described as above. Type of series: cell-based. The protocol: as §2
Series [10] deals with Candida glabrata DSM 11226. The series is described as above. Type of series: cell-based. The protocol:
as §2

Converted amounts (≈) assume the structure as drawn. Like-named read-outs stand apart in the source and are kept apart here.

For the compound `CCN(CC)CCNC(=S)N[C@@H]1[C@H](O)[C@H](O[C@H]2/C=C/C=C/C=C/C=C/C=C/C=C/C=C/[C@H](C)[C@@H](O)[C@@H](C)[C@H](C)OC(=O)C[C@H](O)C[C@H](O)CC[C@@H](O)[C@H](O)C[C@H](O)C[C@]3(O)C[C@H](O)[C@@H](C(=O)O)[C@H](C2)O3)O[C@H](C)[C@H]1O` [Compound A25, N-{3-[2-(N,N-diethylamino)ethyl]thioureidyl}amphotericin B], the “IC50 (cytotoxic activity)” value in [1], in series [2] and in series [3] was over 100 µg/mL each time. For the same compound, in [4], the “Hemotoxi EH50” value is over 100 µg/mL. For the same compound, the “Antifungal activity MIC” value in series [5] came out at 2 µg/mL; in series [6], 2 µg/mL; in series [7] it was 2 µg/mL; in [8], 2 µg/mL; in series [9], 4 µg/mL; in [10] it was 4 µg/mL. In addition, the “Antifungal activity IC50” value in series [8] was found to be 0.85 µg/mL.
For `CCCN(CC1(O)OCC(O)C(O)C1O)C1C(O)C(C)OC(OC2C=CC=CC=CC=CC=CC=CC=CC(C)C(O)C(C)C(C)OC(=O)CC(O)CC(O)CCC(O)C(O)CC(O)CC3(O)CC(O)C(C(=O)O)C(C2)O3)C1O` (centres unmarked) [Compound A16, N-fructosyl-N-n-propylamphotericin B], the entries for the “IC50 (cytotoxic activity)” value in [1], in series [2] and in [3] were over 100 µg/mL, 50.1 ± 1.3 µg/mL (≈ 44.4 µM) and 73.3 ± 1.20 µg/mL (≈ 65 µM), respectively.
As for `C[C@@H]1[C@H](O)[C@@H](C)/C=C/C=C/C=C/C=C/C=C/C=C/C=C/[C@H](O[C@@H]2O[C@H](C)[C@@H](O)[C@H](NC(=S)NCCN3CCCC3)[C@@H]2O)C[C@@H]2O[C@](O)(C[C@@H](O)C[C@@H](O)[C@H](O)CC[C@@H](O)C[C@@H](O)CC(=O)O[C@H]1C)C[C@H](O)[C@H]2C(=O)O` [Compound A27, N-{[3-(2-pyrrolidin-1-yl)ethyl]thioureidyl}amphotericin B], the “IC50 (cytotoxic activity)” value in series [1], in series [2] and in series [3] was over 100 µg/mL each time. In [4], the “Hemotoxi EH50” value is over 100 µg/mL. Besides, the “Antifungal activity MIC” value was 2 µg/mL in series [5]; 2 µg/mL in series [6]; 2 µg/mL in series [7]; 2 µg/mL in [8]; 4 µg/mL in series [9]; 4 µg/mL in [10]. Also, the “Antifungal activity IC50” value in series [8] is 0.75 µg/mL.
With `C[C@@H]1[C@H](O)[C@@H](C)/C=C/C=C/C=C/C=C/C=C/C=C/C=C/[C@H](O[C@@H]2O[C@H](C)[C@@H](O)[C@H](NC(=O)[C@H](N)CC(=O)OC(C)(C)C)[C@@H]2O)C[C@@H]2O[C@](O)(C[C@@H](O)C[C@@H](O)[C@H](O)CC[C@@H](O)C[C@@H](O)CC(=O)O[C@H]1C)C[C@H](O)[C@H]2C(=O)O` [Compound A35, N-D-(O^β-tert-butyl)asparagylamphotericin B], the “IC50 (cytotoxic activity)” value in series [1] (LLC-PK1, 120 h, MTT) is 70.7 ± 2.3 µg/mL (≈ 64.5 µM); in series [2] (CCRF-CEM, 120 h, MTT), over 100 µg/mL; in series [3] (HepG2, 120 h, MTT), over 100 µg/mL. For the same compound, in series [4] (human erythrocytes, 37° C., 30 minutes), the “Hemotoxi EH50” value is over 100 µg/mL. Further, the “Antifungal activity MIC” value in series [5] worked out at 4 µg/mL; in [6] it was 2 µg/mL; in [7] it was 4 µg/mL; in series [8], 4 µg/mL; in series [9] it was 4 µg/mL; in series [10], 4 µg/mL. Also, the “Antifungal activity IC50” value in series [8] is 1.40 µg/mL.
Regarding `C[C@@H]1[C@H](O)[C@@H](C)/C=C/C=C/C=C/C=C/C=C/C=C/C=C/[C@H](O[C@@H]2O[C@H](C)[C@@H](O)[C@H](NC(=S)NCCN3CCOCC3)[C@@H]2O)C[C@@H]2O[C@](O)(C[C@@H](O)C[C@@H](O)[C@H](O)CC[C@@H](O)C[C@@H](O)CC(=O)O[C@H]1C)C[C@H](O)[C@H]2C(=O)O` [Compound A24, N-{[3-(2-morpholin-1-yl)ethyl]thioureidyl}amphotericin B], the “IC50 (cytotoxic activity)” value in series [1] is over 100 µg/mL; in series [2], 80.9 ± 2.3 µg/mL (≈ 73.8 µM); in series [3], over 100 µg/mL. In addition, in [4], the “Hemotoxi EH50” value is over 100 µg/mL. Further, the “Antifungal activity MIC” value in [5] was found to be 2 µg/mL; in series [6], 2 µg/mL; in series [7], 2 µg/mL; in series [8], 2 µg/mL; in series [9], 4 µg/mL; in series [10], 4 µg/mL. Further, the “Antifungal activity IC50” value in series [8] turned out to be 1.13 µg/mL.
Consider `C[C@@H]1[C@H](O)[C@@H](C)/C=C/C=C/C=C/C=C/C=C/C=C/C=C/[C@H](O[C@@H]2O[C@H](C)[C@@H](O)[C@H](NC3CC(=O)N(c4ccc(Br)cc4)C3=O)[C@@H]2O)C[C@@H]2O[C@](O)(C[C@@H](O)C[C@@H](O)[C@H](O)CC[C@@H](O)C[C@@H](O)CC(=O)O[C@H]1C)C[C@H](O)[C@H]2C(=O)O` (some centres unmarked) [Compound A3, N—[N-(4-bromophenyl)succinimidyl]amphotericin B], for which the “Hemotoxi EH50” value in [4] was over 100 µg/mL. For the same compound, the “Antifungal activity MIC” value in [5] is 4 µg/mL; in series [6], 4 µg/mL; in series [7], 4 µg/mL; in series [8] it was 4 µg/mL; in series [9], 8 µg/mL; in [10] it was 8 µg/mL. Moreover, in [8], the “Antifungal activity IC50” value is 2.85 µg/mL.
Turning to `Cc1cc(C)c(N2C(=O)CC(N[C@@H]3[C@H](O)[C@H](O[C@H]4/C=C/C=C/C=C/C=C/C=C/C=C/C=C/[C@H](C)[C@@H](O)[C@@H](C)[C@H](C)OC(=O)C[C@H](O)C[C@H](O)CC[C@@H](O)[C@H](O)C[C@H](O)C[C@]5(O)C[C@H](O)[C@@H](C(=O)O)[C@H](C4)O5)O[C@H](C)[C@H]3O)C2=O)c(C)c1` (some centres unmarked) [Compound A1, N—[N-(2,4,6-trimethylphenyl)succinimidyl]amphotericin B], the “Hemotoxi EH50” value in series [4] is over 100 µg/mL. For the same compound, the “Antifungal activity MIC” value worked out at 4 µg/mL in [5]; 2 µg/mL in [6]; 4 µg/mL in series [7]; 2 µg/mL in [8]; 8 µg/mL in series [9]; 8 µg/mL in [10]. Further, in series [8], the “Antifungal activity IC50” value is 0.98 µg/mL.
Take `C[C@@H]1[C@H](O)[C@@H](C)/C=C/C=C/C=C/C=C/C=C/C=C/C=C/[C@H](O[C@@H]2O[C@H](C)[C@@H](O)[C@H](NC3CC(=O)N(c4ccccc4C(C)(C)C)C3=O)[C@@H]2O)C[C@@H]2O[C@](O)(C[C@@H](O)C[C@@H](O)[C@H](O)CC[C@@H](O)C[C@@H](O)CC(=O)O[C@H]1C)C[C@H](O)[C@H]2C(=O)O` (some centres unmarked) [Compound A4, N—[N-(2-tert-butylophenyl)succinimidyl]amphotericin B]: the “Hemotoxi EH50” value in series [4] is over 100 µg/mL. For the same compound, the “Antifungal activity MIC” value came out at 4 µg/mL in [5]; 4 µg/mL in series [6]; 4 µg/mL in [7]; 4 µg/mL in series [8]; 8 µg/mL in series [9]; 8 µg/mL in series [10]. Besides, the “Antifungal activity IC50” value in [8] is 3.11 µg/mL.

(Values after patent US9745335B2 (Blirt S.A., priority 2012, dated 2017).)
